The record followed here is a melting point compilation (Tetko et al.; mined from patent text by program, amines drawn as free bases though some values may be those of a salt).

Each structure is given as a SMILES string.

Take `CC(C)(C)C(=O)C1=C(O)C(=O)N(c2ccc(-c3ccon3)cc2)C1C1CCCCC1` (stereo not drawn): the melting point was 259 to 260 °C.

Take `CCc1c(C(=O)O)sc2[nH]c(=O)c(=O)[nH]c12`: the melting point is 230 to 232 °C.

With `CCCCCn1c2ccc(CN3CCCCC3)cc2c2ccc(OC)cc21`, the melting point lay within 64 to 65 °C.

The compound `Cc1[nH]c(-c2ccncc2)c(C)c1C(=O)C(F)(F)F` yielded a melting point of 169 to 170 °C.

With `N#Cc1ccc(Cn2cncc2CCNC(=O)[C@H]2CN(Cc3ccccc3)CCN2C(=O)CC2CCN(C(N)=O)CC2)cc1`, the melting point was 118 °C.

Regarding `CC(=O)Nc1sccc1C(=O)c1ccccc1F`, the melting point came to 144 °C.

On to `CC(=NNc1ccc(C2=NNC(=O)CC2C)cc1)c1cc(O)cc(O)c1` (stereo not drawn), for which the melting point lay in the range of 162 to 166 °C.

In the case of `CC(=O)NCc1nc2c(N)nc3cccnc3c2n1CC(C)(C)O`, the melting point was in the range of 198 to 200 °C.

Compound `O=C(NCc1ccc(Cl)cc1)c1cnc2sc(CO)cc2c1O` showed a melting point of 205 to 210 °C.

Compound `O=C(Nc1ccccc1)ONC1=Nc2ccc(Br)cc2C(c2ccccn2)=NC1` showed a melting point of 190 to 192 °C.

`Nc1nc2c(ncn2CCC(CO)CCl)c(=O)[nH]1` (stereo not drawn) came in with a melting point of 273 to 275 °C.

Consider `CCCC(C)(Sc1ccc(OCCn2c(CC)nc3ccccc3c2=O)cc1)C(=O)OCC` (stereo not drawn), for which the melting point lay in the range of 148 to 150 °C.

`CC(=O)c1nc2ccc(OCC(F)(F)C(F)F)cc2cc1O` registered a melting point of 119 to 121 °C.

`COc1ccc([C@@H]2CCCC[C@H]2C#N)c(OC)c1OC` (relative stereo) had a melting point of 69 to 72 °C.

For the compound `COc1ccc2c(c1)c(-c1cc3c(C(=O)NC(C)(C)CO)ccnc3[nH]1)cn2C`, the melting point lay in the range of 210 to 212 °C.

Consider `Fc1ccc(CNc2nc(OCc3ccccc3)nc(OCC(F)(F)F)n2)cc1`, for which the melting point is 101 to 103 °C.

Consider `O=[N+]([O-])c1ccc(C2(Br)CCCCC2)cc1`, for which the melting point lay in the range of 83.5 to 85.5 °C.

As to `O=C(Nc1ccc(OC(F)(F)F)cc1)N[C@H]1CC[C@@H](Oc2ccc(C(=O)O)cc2)CC1`, the melting point was 210 to 212 °C.

`CCOC(=O)C(CC(=O)c1ccc(Oc2ccc(Br)cc2)cc1)SC(C)=O` (stereo not drawn) showed a melting point of 67 to 68.5 °C.

Consider `CC1Nc2ccccc2N(Cc2ccccc2)C(=O)C1C/C=C/c1ccccc1` (stereo not drawn), for which the melting point was in the range of 119 to 120 °C.

Take `CC#CCOc1cc(OCc2cccc(F)c2F)ncn1`: the melting point worked out at 84.9 °C.

Compound `Cc1ccc([N+](=O)[O-])c(C(=O)Nc2ccc(-n3nc(C(F)(F)F)cc3C(F)(F)F)cc2)c1` yielded a melting point of 188 to 189 °C.

Consider `Cc1ccc(Sc2cncc3sc(C(=O)Nc4ccc(Cl)cc4)cc23)cc1`, for which the melting point was 208 to 211 °C.

As for `CCCCCCCCCCCCCCCCCC(=O)OCCN1C(C)(C)CCCC1(C)C`, the melting point is 30 °C.

`O=C1OCc2c(c3cc(-c4ccc(Cl)cc4)ccc3n2Cc2ccccc2)C1=O` showed a melting point of 263 to 264 °C.

For `CCOC(=O)c1ccc(C=C(C)c2cc3c(cc2C)C(C)(C)CCC3(C)C)cc1`, the melting point was in the range of 109 to 110 °C.

Compound `C=CCOc1cc(C=CNC(=O)OC)ccc1OCC(O)CNC(C)C` (stereo not drawn) came in with a melting point of 91 to 92 °C.

`CNC(=O)c1cc(-c2ccc(OC)cc2)nn(CC=Cc2ccc(Cl)cc2)c1=O` returned a melting point of 184 to 185 °C.

For `CCOC(=O)c1ccc2c(c1)CC(CO)O2` (stereo not drawn), the melting point fell in the range of 72 to 77 °C.

`CC1(C)CN2C(=O)c3ccccc3C(O)(c3ccc(F)cc3)C2=N1` (stereo not drawn) registered a melting point of 168 to 170 °C.

Take `Cc1nc(C)c2c(n1)N(Cc1ccc(-c3ccccc3-c3nnn[nH]3)cc1)C(=O)C(O)C2` (stereo not drawn): the melting point lay in the range of 154 to 156 °C.

Regarding `O=C(Nc1nnc(SCC(=O)C23CC4CC(CC(C4)C2)C3)s1)C1CC1`, the melting point was in the range of 218 to 219 °C.

For `Cn1c(C#N)ccc1-c1cc(F)c2c(c1)C1(CC1)C(=O)N2`, the melting point was in the range of 228 to 231 °C.

In turn, `CS(=O)(=O)c1ccc(-n2nc(C(F)(F)F)cc2-c2ccc(-c3ccco3)cc2F)cc1` yielded a melting point of 223 to 225 °C.

In turn, `Oc1ccc2c(c1)CCC(NCC(O)COc1cccc3ccccc13)C2` (stereo not drawn) displayed a melting point of 118 to 120 °C.

Regarding `O=c1c2cc(Oc3ccc(Cl)cc3)ccc2ncn1Cc1cccnc1`, the melting point was in the range of 130 to 133 °C.

With `O=C1CC(c2ccc(Br)cc2)Oc2ccc(Br)cc21` (stereo not drawn), the melting point was 115 to 117 °C.

With `Cc1nn(-c2ccccn2)c2c1C(=NO)CC(C)(C)C2Br` (stereo not drawn), the melting point fell in the range of 195 to 196 °C.

`CN(C)C=Nc1ccc(-c2cc3c(Nc4cccc(Cl)c4)ncnc3[nH]2)cc1`: the melting point was over 300 °C.

As to `Cn1ncnc1COc1nn2c(-c3ccoc3)nncc2c1-c1ccccc1F`, the melting point came out at 148 °C.

Compound `COC(=O)C1=C(C)NC(C)=C(C(=O)OCCN2CCN(C(c3ccccc3)c3ccccc3)CC2)C1c1cccc([N+](=O)[O-])c1` (stereo not drawn) registered a melting point of 166 to 169 °C.

Compound `C[C@@H](N1CCN(C(=O)c2ccc(F)cc2F)CC1)[C@](O)(Cn1cncn1)c1ccc(F)cc1F` displayed a melting point of 63 to 65 °C.

Compound `CCCN1C(=O)N2C[C@@H](Cc3ccccc3)N=C2c2c1nc(C=O)n2Cc1ccccc1` showed a melting point of 184 to 185 °C.

Regarding `CC(C)C(C)(C(N)=O)N1C(=O)c2ccc3ccsc3c2C1=O` (stereo not drawn), the melting point was in the range of 199 to 200 °C.

For `NN=Cc1ccc(C(=O)NC2CCC3(CC2)CN(CC(=O)O)C(=O)O3)cc1` (stereo not drawn), the melting point was in the range of 280 to 284 °C.

In the case of `CC1CC(=O)N(c2ccc(Cl)cc2)C(=O)C1`, the melting point lay within 163 to 164 °C.

Turning to `CCOC(=O)C(C#N)C1CC(C)(C)NC(C)(C)C1` (stereo not drawn), the melting point was in the range of 116 to 117 °C.

`CC(SC1COC(c2ccc(C(=O)Nc3ccc(C#N)c(Cl)c3)cc2)OC1)C(O)(Cn1cncn1)c1ccc(F)cc1F` (stereo not drawn) gave a melting point of 115 °C.

`CCOC(=O)c1c(C)nc2c(C(F)(F)F)cccc2c1O` had a melting point of 165 °C.

Turning to `COC(=O)c1cc(O)c2cc(OC)ccc2c1`, the melting point lay within 193 to 195 °C.

The compound `COC(=O)CCC(=O)CCl` registered a melting point of 8 to 13 °C.

Take `CC(=NOCCCOc1ccc(CC(=O)O)cc1)c1ccc(C(C)(C)C)cc1`: the melting point fell in the range of 98.7 to 99.7 °C.

In turn, `CC(NC(=O)c1c[nH]c2ncc(-c3nn(CC(O)CO)c4cc(Cl)ccc34)nc12)C(=O)N1CC(C#N)C1` (stereo not drawn) had a melting point of 165 to 180 °C.

`Cc1cc(Cl)nc(C#N)c1` gave a melting point of 133 °C.

`C/C(Cl)=C/CCC(=O)C=P(c1ccccc1)(c1ccccc1)c1ccccc1` yielded a melting point of 109 to 113 °C.

As for `CCOCc1nc2c(N)nc3ccc(O)cc3c2n1CCCCNC(=O)Nc1ccccc1`, the melting point fell in the range of 218 to 221 °C.

For the compound `CC(C)(C)c1nc(C(=O)c2cc[nH]n2)nc(C(C)(C)C)c1O`, the melting point is 156 to 161 °C.

In turn, `COc1cc(OC)c(-c2cc3ccccc3n2C)cc1C=CC(=O)c1ccc(S(=O)(=O)NCc2cccnc2)cc1` came in with a melting point of 202 to 203 °C.

On to `Cc1cc(C(C)N(O)C(N)=O)c(C)s1` (stereo not drawn), for which the melting point was in the range of 146 to 147 °C.

For the compound `COCC1CCCN(c2ccnc3sc(C(N)=O)c(N)c23)C1` (stereo not drawn), the melting point lay within 229 to 230 °C.

`CCOC(=O)c1cn(CCCl)c2nc(N3CCN(C(C)=O)CC3)ncc2c1=O` registered a melting point of 205 to 206 °C.

Regarding `O=C1Cc2cc(Cl)ccc2Oc2ccccc21`, the melting point fell in the range of 60 to 61 °C.

In turn, `O=C1c2ccccc2C(=O)N1OCc1cn(C(c2ccccc2)(c2ccccc2)c2ccccc2)cn1` yielded a melting point of 155 to 157 °C.

Regarding `CC1=NOC2C3CC(C12)C1C(=O)OC(=O)C31` (stereo not drawn), the melting point lay within 194 to 197 °C.

Regarding `O=C1Nc2cccc(-c3cnc4ccccc4c3)c2C12COc1cc3c(cc12)OCCO3` (stereo not drawn), the melting point was 221 to 224 °C.

Turning to `CCN(c1ccc(OC)cc1)c1cc(NC)nc(C)n1`, the melting point lay within 116 to 118 °C.

The compound `COC(=O)c1c(C2=CC(=O)c3cccc(O)c3C2=O)c(C)n(C)c1C` registered a melting point of 178 to 180 °C.

`COc1ccc2cccc(CCNC(C)=O)c2c1` came in with a melting point of 108 °C.

Take `CC1=C(C)C(=O)C(CCCCO)=C(C)C1=O`: the melting point is 36 to 38 °C.

`O=C(O)CCc1cc(OCCCc2cn(-c3ccc(C(F)(F)F)cn3)nc2C2CCCCC2)nn1C1CCCCC1` came in with a melting point of 190 to 191 °C.

For the compound `N#Cc1cnn2c1N(C(=O)CCCl)CC=C2c1cccc(C(F)(F)F)c1`, the melting point fell in the range of 183 to 185 °C.

`COc1ccc(-c2cc(C(F)(F)F)n3cnc(C#N)c3n2)cc1`: the melting point stood at 192 °C.

Take `COc1ccc2[nH]c(C)c(CCNC(=O)C3CC3)c2c1`: the melting point lay within 102 to 103 °C.

Regarding `CC1(C(=O)NNc2c(Cl)cc(C(F)(F)F)cc2Cl)CC1(Cl)Cl` (stereo not drawn), the melting point lay within 174 to 175 °C.

`CO[C@@H]1CC[C@H](C(=O)O)Cc2onc(-c3ccc(Cl)cc3)c21` (relative stereo) showed a melting point of 168 to 170 °C.

`CCCc1nc2c(N)nc3ccccc3c2n1CCCC(=O)N(C)OC` returned a melting point of 163 to 165 °C.

`O=S1(=O)NC2CCCN2c2c(F)cc(O)cc21` (stereo not drawn) had a melting point of 167 to 169 °C.

Compound `Cc1cnc2[nH]c3ccccc3c2c1` showed a melting point of 270 °C.

On to `COC1(c2cc(F)cc(OCc3nc(-c4ccccc4)c(-c4ccc(S(N)(=O)=O)cc4)o3)c2)CCOCC1`, for which the melting point lay within 70 to 80 °C.

In turn, `COc1cc(CO)ccc1OCc1nc(-c2ccccc2)cn1C` gave a melting point of 126 to 127 °C.

`CC1(C)Oc2cc(CCc3ccccc3)cc(O)c2C2=CC(=O)CCC21` (stereo not drawn): the melting point lay within 233 to 235 °C.

`C[C@]1(CN2CCC(NC(=O)OCc3ccc(C(F)(F)F)cc3)CC2)Cn2cc([N+](=O)[O-])nc2O1` yielded a melting point of 141 to 144 °C.

Turning to `O=C(Nc1ccc(F)cc1F)C1C(=O)N2c3ccccc3Sc3cccc1c32` (stereo not drawn), the melting point was 208 to 209 °C.

The compound `COC(=O)COc1ccc(C(=O)c2ccccc2)c(O)c1` registered a melting point of 131 to 134 °C.

Consider `CC(C)C1(C)NC(c2ccc(C=O)cn2)=NC1=O` (stereo not drawn), for which the melting point was 106 to 108 °C.

`NC(=S)C=Cc1ccc(SC(F)(F)F)cc1` had a melting point of 143 to 144 °C.

The compound `CCCC[C@H](NC(=O)[C@H](CC(C)C)NC(=O)c1c(F)cccc1C(F)(F)F)C(=O)CSCc1ccco1` gave a melting point of 106 to 107 °C.

`C#CCC(C(=CCl)c1cccnc1)c1ccc(Cl)cc1Cl` (stereo not drawn) gave a melting point of 87 to 88 °C.

What is called melting point is the temperature, or range, at which the solid turns liquid.
